Literature values, collected in patent US10918126B2, “Isotopically modified compounds and their use as food supplements” (Retrotope, Inc., priority 2006, dated 2021).
Where two headings read alike, the source gives them in different places.

What was measured:
[1] = biological target: liver alcohol dehydrogenase (ADH); conditions: ethanol oxidation by ADH to acetaldehyde

(1-R)[I—^3H2]— ethanol
kinetic isotope effect T(V/K) ([1]; pH 6): 6.5
kinetic isotope effect T(V/K) ([1]; pH 9): 2.5

deuterated ethanol
mean value of D(V/K) (perfused rat liver): 2.89

(1-R)[1-^2H2]— ethanol
kinetic isotope effect D(V/K) ([1]; pH 6): 3
kinetic isotope effect D(V/K) ([1]; pH 9): 1.5
